According to patent US8716292B2, “Riminophenazines with 2-(heteroaryl)amino substituents and their anti-microbial activity” (priority 2010, dated 2014):
≈ marks a conversion by molar mass, not a printed value.

Test system: Mycobacterium tuberculosis H37Rv strains
Assay: In vitro assay for antimicrobial susceptibility (microplate Alamar blue MIC)
Format: cell-based
Conditions: Mycobacterium tuberculosis, H37RV, 7H9, Alamar blue, inhibition ≧90%; read-out: MIC (μg/mL) against H37Rv

Compound | MIC [µg/mL]
CC(C)/N=c1\cc2n(-c3ccc(F)cc3)c3ccccc3nc-2cc1Nc1ncccc1C#N [TBI-1057] | 0.015 (≈ 0.0334 µM)
COC1CCC(/N=c2\cc3n(-c4ccc(Cl)cc4)c4ccccc4nc-3cc2Nc2ncccn2)CC1 (stereo not shown) [TBI-1090, 5-(4-Chlorophenyl)-3-(4-methoxycyclohexyl)imino-2-(pyrimidin-2-yl)amino-3,5-dihydrophenazine] | < 0.0075

Same assay, conditions: Mycobacterium tuberculosis, H37RV, in vitro, Mycobacterium tuberculosis H37Rv strains; read-out: MIC (μg/mL) against H37Rv

Compound | MIC [µg/mL]
CC(C)CN1CCC(/N=c2\cc3n(-c4ccccc4)c4ccccc4nc-3cc2Nc2cccnc2)CC1 [TBI-057, 5-phenyl-3-(N-isobutyl-4-piperidyl)imino-2-(3-pyridyl)amino-3,5-dihydrophenazine] | 0.125 (≈ 0.249 µM)
Cc1ccc(Nc2cc3nc4ccccc4n(-c4ccc(C(F)(F)F)cc4)c-3c/c2=N\C2CC2)cn1 [TBI-716, 5-(4-Trifluoromethylphenyl)-3-cyclopropylimino-2-(6-methyl-3-pyridyl)amino-3,5-dihydrophenazine] | 0.041 (≈ 0.0844 µM)
Cc1ccc(Nc2cc3nc4ccccc4n(-c4ccc(Cl)c(Cl)c4)c-3c/c2=N\C2CCOCC2)cn1 [TBI-945, 5-(3,4-Dichlorophenyl)-3-(4-tetrahydropyranyl)imino-2-(6-methyl-3-pyridyl)amino-3,5-dihydrophenazine] | 0.25 (≈ 0.471 µM)
Cc1ccc(-n2c3c/c(=N\C4CCN(CC(C)C)CC4)c(Nc4ccc(C)nc4)cc-3nc3ccccc32)cc1 [TBI-320, 5-(4-Methylphenyl)-3-(N-isobutyl-4-piperidyl)imino-2-(6-methyl-3-pyridyl)amino-3,5-dihydrophenazine] | 0.11 (≈ 0.207 µM)
CC(C)/N=c1\cc2n(-c3ccc([S+](C)[O-])cc3)c3ccccc3nc-2cc1Nc1cccnc1 (stereo not shown) [TBI-457, 5-(4-Methylsulfinylphenyl)-3-(1-methylethyl)imino-2-(3-pyridyl)amino-3,5-dihydrophenazine] | 0.469 (≈ 1 µM)
Cc1ccc(Nc2cc3nc4ccccc4n(-c4ccccc4)c-3c/c2=N\C2CC2)cn1 [TBI-095] | 0.048 (≈ 0.115 µM)
COC1CCC(/N=c2\cc3n(-c4ccc(F)cc4)c4ccccc4nc-3cc2Nc2cccnc2)CC1 (stereo not shown) [TBI-685, 5-(4-Fluorophenyl)-3-(4-methoxycyclohexyl)imino-2-(3-pyridyl)amino-3,5-dihydrophenazine] | 0.125 (≈ 0.253 µM)
Fc1ccc(-n2c3c/c(=N\C4CCOCC4)c(Nc4cccnc4)cc-3nc3ccccc32)cc1 [TBI-681, 5-(4-Fluorophenyl)-3-(4-tetrahydropyranyl)imino-2-(3-pyridyl)amino-3,5-dihydrophenazine] | 0.06 (≈ 0.129 µM)
COc1ncccc1Nc1cc2nc3ccccc3n(-c3ccc(Cl)cc3Cl)c-2c/c1=N\C1CCC(OC)CC1 (stereo not shown) [TBI-371, 5-(2,4-Dichlorophenyl)-3-(4-methoxycyclohexyl)imino-2-(2-methoxy-3-pyridyl)amino-3,5-dihydrophenazine] | 0.044 (≈ 0.0766 µM)
Clc1cccc(-n2c3c/c(=N\C4CC4)c(Nc4cccnc4)cc-3nc3ccccc32)c1 [TBI-812, 5-(3-Chlorophenyl)-3-cyclopropylimino-2-(3-pyridyl)amino-3,5-dihydrophenazine] | 0.013 (≈ 0.0297 µM)
Fc1ccc(-n2c3c/c(=N\C4CCCCC4)c(Nc4cccnc4)cc-3nc3ccccc32)cc1 [TBI-920, 5-(4-Fluorophenyl)-3-cyclohexylimino-2-(3-pyridyl)amino-3,5-dihydrophenazine] | 0.029 (≈ 0.0626 µM)
Cc1cncc(Nc2cc3nc4ccccc4n(-c4ccc(F)cc4)c-3c/c2=N\C(C)C)c1 [TBI-1025, 5-(4-Fluorophenyl)-3-(1-methylethyl)imino-2-(5-methyl-3-pyridyl)amino-3,5-dihydrophenazine] | 0.122 (≈ 0.279 µM)
Brc1ccc(-n2c3c/c(=N\C4CCC4)c(Nc4cccnc4)cc-3nc3ccccc32)cc1 [TBI-098, 5-(4-Bromophenyl)-3-cyclobutylimino-2-(3-pyridyl)amino-3,5-dihydrophenazine] | 0.028 (≈ 0.0564 µM)
Cc1cncc(Nc2cc3nc4ccccc4n(-c4ccc(C(F)(F)F)cc4)c-3c/c2=N\C2CCC2)c1 [TBI-726, 5-(4-Trifluoromethylphenyl)-3-cyclobutylimino-2-(5-methyl-3-pyridyl)amino-3,5-dihydrophenazine] | 0.058 (≈ 0.116 µM)
COc1ncccc1Nc1cc2nc3ccccc3n(-c3ccc(C)cc3)c-2c/c1=N\C1CCOCC1 [TBI-310, 5-(4-Methylphenyl)-3-(4-tetrahydropyranyl)imino-2-(2-methoxy-3-pyridyl)amino-3,5-dihydrophenazine] | 0.03 (≈ 0.061 µM)
COc1ncccc1Nc1cc2nc3ccccc3n(-c3cccc(Cl)c3)c-2c/c1=N\C1CCC1 [TBI-824, 5-(3-Chlorophenyl)-3-cyclobutylimino-2-(2-methoxy-3-pyridyl)amino-3,5-dihydrophenazine] | 0.06 (≈ 0.124 µM)
Clc1ccc(-n2c3c/c(=N\C4CCOCC4)c(Nc4cncc(Br)c4)cc-3nc3ccccc32)cc1 [TBI-880, 5-(4-Chlorophenyl)-3-(4-tetrahydropyranyl)imino-2-(5-bromo-3-pyridyl)amino-3,5-dihydrophenazine] | 0.036 (≈ 0.0642 µM)
COc1ncccc1Nc1cc2nc3cc(F)ccc3n(-c3ccc(Cl)c(Cl)c3)c-2c/c1=N\C1CC1 [TBI-875, 8-Fluoro-5-(3,4-dichlorophenyl)-3-cyclopropylimino-2-(2-methoxy-3-pyridyl)amino-3,5-dihydrophenazine] | 0.047 (≈ 0.0903 µM)
COCC(COC)/N=c1\cc2n(-c3ccc(Cl)c(Cl)c3)c3ccccc3nc-2cc1Nc1cccnc1OC [TBI-375, 5-(3,4-Dichlorophenyl)-3-(1,3-dimethoxyisopropyl)imino-2-(2-methoxy-3-pyridyl)amino-3,5-dihydrophenazine] | 0.125 (≈ 0.221 µM)
Cc1ccc(-n2c3c/c(=N\C4CCC(O)CC4)c(Nc4cncc(C)c4)cc-3nc3ccccc32)cc1 (stereo not shown) [TBI-337, 5-(4-Methylphenyl)-3-(4-hydroxycyclohexyl)imino-2-(5-methyl-3-pyridyl)amino-3,5-dihydrophenazine] | 0.452 (≈ 0.923 µM)
Cc1ccc(Nc2cc3nc4ccccc4n(-c4ccc(Br)cc4)c-3c/c2=N\C(C)C)cn1 [TBI-099, 5-(4-Bromophenyl)-3-(1-methylethyl)imino-2-(6-methyl-3-pyridyl)amino-3,5-dihydrophenazine] | 0.049 (≈ 0.0983 µM)
Cc1ccc(-n2c3c/c(=N\C4CCC(O)CC4)c(Nc4cccnc4)cc-3nc3ccccc32)cc1 (stereo not shown) [TBI-338, 5-(4-Methylphenyl)-3-(4-hydroxycyclohexyl)imino-2-(3-pyridyl)amino-3,5-dihydrophenazine] | 0.5 (≈ 1.05 µM)
Cc1ncccc1Nc1cc2nc3ccccc3n(-c3ccc(Cl)cc3)c-2c/c1=N\C1CCOCC1 [TBI-452] | 0.168 (≈ 0.339 µM)
COc1ncccc1Nc1cc2nc3ccc(F)cc3n(-c3ccc(Cl)c(Cl)c3)c-2c/c1=N\C1CC1 [TBI-885, 7-Fluoro-5-(3,4-dichlorophenyl)-3-cyclopropylimino-2-(2-methoxy-3-pyridyl)amino-3,5-dihydrophenazine] | 0.06 (≈ 0.115 µM)
Cc1ccc(Nc2cc3nc4ccccc4n(-c4ccc(Cl)cc4)c-3c/c2=N\C2CCN(C)CC2)cn1 [TBI-446, 5-(4-Chlorophenyl)-3-(N-methyl-4-piperidyl)imino-2-(6-methyl-3-pyridyl)amino-3,5-dihydrophenazine] | 0.016 (≈ 0.0314 µM)
COc1nc(C)ccc1Nc1cc2nc3ccccc3n(-c3ccc(F)cc3)c-2c/c1=N\C(C)C [TBI-1092, 5-(4-Fluorophenyl)-3-(1-methylethyl)imino-2-(2-methoxy-6-methyl-3-pyridyl)amino-3,5-dihydrophenazine] | 0.424 (≈ 0.907 µM)
